Where “and” joins values, the source holds several entries; their conditions need not be identical. Equal entries are not always repeated.
Assays:
[1] = tested on: BxPC-3 Human Pancreatic Tumor Xenograft; test: BxPC-3 xenograft tumor growth inhibition study (Example 3); type: in vivo, mouse xenograft; details: for % TGI: BxPC-3, Day 29; for activity according to NCI Standards / #PR/CR / FINAL TUMOR VOLUME (DAY 29) MEAN ± SEM / calculated TGI values (discussion): BxPC-3; for calculated TGI values (discussion): all evaluated doses and schedules
Source text: (§1) (Madison, Wis.). […] Tumor measurements were converted to cubic millimeter tumor volume using the formula^(5): […] Final mean tumor volume ±SEM for each group was reported; animals experiencing partial or complete tumor regressions or animals experiencing technical or drug-related deaths were censored from these calculations. […] TGI values for each treatment group are reported at study completion; these calculations are based on the final study day. […] If partial tumor regression was reported in multiple animals within one group, a mean value was determined. Individual mice lacking palpable tumors were classified as undergoing complete regression (CR). Animals experiencing partial or complete tumor regressions were censored from TGI calculations. However, data from these animals was included in statistical analysis calculations. In addition, weight data from these animals was included in daily and final group calculations. Tumor Necrosis-Degree of tumor necrosis was rated at each tumor measurement using the following arbitrary index: [table]

acetylated histone 3 = test: Immunoblot of acetylated histone 3 in PANC-1 xenograft tumors; type: in vivo, human; details: FK228 5 mg/kg Q4Dx3; gemcitabine 80 mg/kg Q3Dx4; tumors at study completion; vs controls
Protocol: (§2) Abstract: To examine activity and mechanism of FK228, antitumor efficacy was tested in PANC-1 pancreatic adenocarcinoma model representing transformed Ras, either as a single agent or in combination with gemcitabine. Following PANC-1 study completion, tumor and sera were obtained from: • the vehicle control; • FK228 dosed at 5 mg/kg once every four days for three treatments (Q4Dx3); • Gemcitabine at 80 mg/kg (Q3Dx4); and • the drug combination. Expression of c-Myc, acetylated histones 3 and 4, and p21^waf1 was compared between control and FK228 groups by immunoblotting and was quantified following actin normalization. Serum levels of putative tumor products b-FGF and MMP-2 were quantified by human-specific ELISA. […]
(§3) Tissue Biomarkers: Tumor levels of acetylated histone-4, histone-4, c-Myc, p21waf and β-actin were quantified by immunoblotting as described. […] The chemiluminescence signal was captured by autoradiography, quantified by densitometry and expressed as a ratio of actin in each sample lane. For each biomarker, means and standard errors were calculated in each treatment group. […]
(§4) Expression of c-Myc, acetylated histones 3 and 4, and p21^waf1 was compared between control and FK228 groups by immunoblotting and was quantified following actin normalization. Serum levels of putative tumor products b-FGF and MMP-2 were quantified by human-specific ELISA. […]

c-Myc = test: Immunoblot of c-Myc in PANC-1 xenograft tumors after treatment; type: in vivo, human; details: FK228 5 mg/kg Q4Dx3; gemcitabine 80 mg/kg Q3Dx4; tumors at study completion; actin-normalized, vs controls
Protocol: as §2, §3, §4

[2] = tested on: PANC-1 Human Pancreatic Tumor Xenograft; test: PANC-1 xenograft tumor growth inhibition study (Example 3); type: in vivo, mouse xenograft; details: for % TGI: PANC-1, Day 25; for activity according to NCI Standards / #PR/CR / FINAL TUMOR VOLUME (DAY 25) MEAN ± SEM / calculated TGI values (discussion) / % TR: PANC-1; for calculated TGI values (discussion): all evaluated doses and schedules
Source text: as §1

[3] = FK228 2.5 mg/kg IV Q4Dx3, 2.5 mg/kg
[4] = FK228 5 mg/kg IV Q4Dx3, 5 mg/kg

In the case of C/C=C1\NC(=O)[C@H]2CSSCC/C=C/[C@H](CC(=O)N[C@H](C(C)C)C(=O)N2)OC(=O)[C@H](C(C)C)NC1=O [FK228, romidepsin], the “% TGI” value ([1]; FK228 2.5 mg/kg IV Q4Dx3) is reported as “No TGI”, the “% TGI” value ([1]; FK228 5 mg/kg IV Q4Dx3) is reported as “No TGI” and the “activity according to NCI Standards” value ([1]; FK228 2.5 mg/kg IV Q4Dx3) is reported as “inactive”. For the same compound, the “#PR/CR” value [1, 3] was 0/9 and 0/0, the “FINAL TUMOR VOLUME (DAY 29) MEAN ± SEM” value [1, 3] was 2440±643 mm^3 and the “activity according to NCI Standards” value ([1]; FK228 5 mg/kg IV Q4Dx3) was “inactive”. The “#PR/CR” value [1, 4] was 0/9 and 0/0, the “FINAL TUMOR VOLUME (DAY 29) MEAN ± SEM” value [1, 4] was 2620±238 mm^3 and the “calculated TGI values (discussion)” value [1] was “No tumor growth inhibition”. For the same compound, the “single agent activity towards tumor model” value ([1]; wildtype ras BxPC-3) was “inactive”, the “acetylation of histone 3” value (acetylated histone 3) was “not affected” and the “inhibition of c-Myc expression” value (c-Myc) was 50%. For the same compound, the “% TGI” value ([2]; FK228 2.5 mg/kg IV Q4Dx3) was 26%, the “% TGI” value ([2]; FK228 5 mg/kg IV Q4Dx3) was 26% and the “activity according to NCI Standards” value ([2]; FK228 2.5 mg/kg IV Q4Dx3) was “inactive”. The “#PR/CR” value [2, 3] was 0/9 and 0/0, the “FINAL TUMOR VOLUME (DAY 25) MEAN ± SEM” value [2, 3] was 1688±290 mm^3 and the “activity according to NCI Standards” value ([2]; FK228 5 mg/kg IV Q4Dx3) was “inactive”. The “#PR/CR” value [2, 4] was 0/9 and 0/0, the “FINAL TUMOR VOLUME (DAY 25) MEAN ± SEM” value [2, 4] was 1690±290 mm^3 and 1690 ± 331 mm^3 and the “calculated TGI values (discussion)” value [2] was “less than 58%”. For the same compound, the “single agent activity towards tumor model” value ([2]; ras-transformed PANC-1) was “some activity”.

In the case of Nc1ccn([C@@H]2O[C@H](CO)[C@@H](O)C2(F)F)c(=O)n1 [Gemcitabine, gemcitabine], the “% TGI” value ([1]; Gemcitabine 40 mg/kg IP Q3Dx4) is reported as 20%, the “% TGI” value ([1]; Gemcitabine 80 mg/kg IP Q3Dx4) is reported as 9% and the “#PR/CR” value ([1]; Gemcitabine 40 mg/kg IP Q3Dx4) is reported as 0/9 and 0/0. The “FINAL TUMOR VOLUME (DAY 29) MEAN ± SEM” value ([1]; Gemcitabine 40 mg/kg IP Q3Dx4) was 1683±426 mm^3, the “activity according to NCI Standards” value ([1]; Gemcitabine 40 mg/kg IP Q3Dx4) was “inactive” and the “#PR/CR” value ([1]; Gemcitabine 80 mg/kg IP Q3Dx4) was 0/9 and 0/0. For the same compound, the “FINAL TUMOR VOLUME (DAY 29) MEAN ± SEM” value ([1]; Gemcitabine 80 mg/kg IP Q3Dx4) was 1890±237 mm^3, the “activity according to NCI Standards” value ([1]; Gemcitabine 80 mg/kg IP Q3Dx4) was “inactive” and the “calculated TGI values (discussion)” value [1] was “less than 58%”. For the same compound, the “acetylation of histone 3” value (acetylated histone 3) was “significantly inhibited”, the “inhibition of c-Myc expression” value (c-Myc) was 50% and the “% TGI” value ([2]; Gemcitabine 40 mg/kg IP Q3Dx4) was 31%. For the same compound, the “% TGI” value ([2]; Gemcitabine 80 mg/kg IP Q3Dx4) was 51%, the “#PR/CR” value ([2]; Gemcitabine 40 mg/kg IP Q3Dx4) was 1/9 and 1/0 and the “% TR” value ([2]; Gemcitabine 40 mg/kg IP Q3Dx4) was 62%. The “FINAL TUMOR VOLUME (DAY 25) MEAN ± SEM” value ([2]; Gemcitabine 40 mg/kg IP Q3Dx4) was 1566±255 mm^3, the “activity according to NCI Standards” value ([2]; Gemcitabine 40 mg/kg IP Q3Dx4) was “inactive” and the “% TR” value ([2]; Gemcitabine 40 mg/kg IP Q3Dx4, listed as gemcitabine) was 62%. For the same compound, the “#PR/CR” value ([2]; Gemcitabine 80 mg/kg IP Q3Dx4) was 0/9 and 0/0, the “FINAL TUMOR VOLUME (DAY 25) MEAN ± SEM” value ([2]; Gemcitabine 80 mg/kg IP Q3Dx4) was 1172±234 mm^3 and the “activity according to NCI Standards” value ([2]; Gemcitabine 80 mg/kg IP Q3Dx4) was “inactive”. The “calculated TGI values (discussion)” value [2] was “less than 58%”.
